Measured values published in ChEMBL document CHEMBL1201862, “PubChem BioAssay data set” (2004).
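Compound exposure: 48 hours, 5 concentrations, 96-well plates. GI50 marks 50% less growth.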 Active and inactive are the calls of the source. Rule as the data show it: active = GI50 up to about 1.1 µM and inactive = higher.

Columns and labels:
Experiment in all cases: NCI anticancer screen, dose series, 48 h
HL-60 = test system: HL-60
SF-539 = test system: SF-539
UACC-62 = test system: UACC-62
UACC-257 = test system: UACC-257
RPMI-8226 = test system: RPMI-8226
NCI/ADR-RES = test system: NCI/ADR-RES
SN12C = test system: SN12C
MDA-MB-435 = test system: MDA-MB-435
HOP-62 = test system: HOP-62
DU-145 = test system: DU-145
SR = test system: SR
NCI-H460 = test system: NCI-H460
SF-295 = test system: SF-295
TK-10 = test system: TK-10
HCT-15 = test system: HCT-15
T47D = test system: T47D
NCI-H522 = test system: NCI-H522
CCRF-CEM = test system: CCRF-CEM
Malme-3M = test system: Malme-3M
Hs-578T = test system: Hs-578T
M14 = test system: M14
MOLT-4 = test system: MOLT-4
MDA-N = test system: MDA-N
HCC 2998 = test system: HCC 2998
ACHN = test system: ACHN
SK-MEL-5 = test system: SK-MEL-5
BT-549 = test system: BT-549
MCF7 = test system: MCF7
OVCAR-8 = test system: OVCAR-8
COLO 205 = test system: COLO 205
KM12 = test system: KM12
HT-29 = test system: HT-29
SW-620 = test system: SW-620
SK-MEL-28 = test system: SK-MEL-28
U-251 = test system: U-251
OVCAR-4 = test system: OVCAR-4
UO-31 = test system: UO-31
OVCAR-3 = test system: OVCAR-3
K562 = test system: K562
MDA-MB-231 = test system: MDA-MB-231
SNB-19 = test system: SNB-19
EKVX = test system: EKVX
OVCAR-5 = test system: OVCAR-5
786-0 = test system: 786-0
LOX IMVI = test system: LOX IMVI
HCT-116 = test system: HCT-116
NCI-H23 = test system: NCI-H23
IGROV-1 = test system: IGROV-1
NCI-H226 = test system: NCI-H226
SK-MEL-2 = test system: SK-MEL-2
SF-268 = test system: SF-268
A549 = test system: A549

Compound: COc1ccc(N[S+]([O-])c2c(C)cc(C)cc2C)cc1 (stereo not drawn)
- GI50 (HL-60): 33 µM (inactive)
- GI50 (SF-539): 19.9 µM (inactive)
- GI50 (UACC-62): 33.7 µM (inactive)
- GI50 (UACC-257): 70.1 µM (inactive)
- GI50 (RPMI-8226): 45.3 µM (inactive)
- GI50 (NCI/ADR-RES): 49.8 µM (inactive)
- GI50 (SN12C): > 100 µM (inactive)
- GI50 (MDA-MB-435): 21.2 µM (inactive)
- GI50 (HOP-62): 72.1 µM (inactive)
- GI50 (DU-145): 93.3 µM (inactive)
- GI50 (SR): 35.7 µM (inactive)
- GI50 (NCI-H460): 35.6 µM (inactive)
- GI50 (SF-295): > 100 µM (inactive)
- GI50 (TK-10): > 100 µM (inactive)
- GI50 (HCT-15): 18.2 µM
- GI50 (T47D): 34 µM (inactive)
- GI50 (NCI-H522): 19.1 µM (inactive)
- GI50 (CCRF-CEM): > 100 µM (inactive)
- GI50 (Malme-3M): 20.3 µM (inactive)
- GI50 (Hs-578T): 34.4 µM (inactive)
- GI50 (M14): 77.8 µM (inactive)
- GI50 (MOLT-4): 40.1 µM (inactive)
- GI50 (MDA-N): 93.1 µM (inactive)
- GI50 (HCC 2998): 19.5 µM (inactive)
- GI50 (ACHN): 43.7 µM (inactive)
- GI50 (SK-MEL-5): 23.8 µM (inactive)
- GI50 (BT-549): 1.79 µM (inactive)
- GI50 (MCF7): 56 µM (inactive)
- GI50 (OVCAR-8): 72.1 µM (inactive)
- GI50 (COLO 205): > 100 µM (inactive)
- GI50 (KM12): 22.5 µM (inactive)
- GI50 (HT-29): 46.1 µM (inactive)
- GI50 (SW-620): 48.2 µM (inactive)
- GI50 (SK-MEL-28): > 100 µM (inactive)
- GI50 (U-251): 50 µM (inactive)
- GI50 (OVCAR-4): 86.5 µM (inactive)
- GI50 (UO-31): 18.2 µM (inactive)
- GI50 (OVCAR-3): 61.9 µM (inactive)
- GI50 (K562): 42.1 µM (inactive)
- GI50 (MDA-MB-231): 80.2 µM (inactive)
- GI50 (SNB-19): > 100 µM (inactive)
- GI50 (EKVX): 43.8 µM (inactive)
- GI50 (OVCAR-5): > 100 µM (inactive)
- GI50 (786-0): 89.5 µM (inactive)
- GI50 (LOX IMVI): 57 µM (inactive)
- GI50 (HCT-116): 14.4 µM (inactive)
- GI50 (NCI-H23): > 100 µM (inactive)
- GI50 (IGROV-1): 22.5 µM (inactive)
- GI50 (NCI-H226): 36.2 µM (inactive)
- GI50 (SK-MEL-2): > 100 µM (inactive)
- GI50 (SF-268): 21.6 µM (inactive)
- GI50 (A549): 26.4 µM (inactive)

Compound: [O-][S+](Nc1ccccc1)c1ccc(Cl)c(Cl)c1 (stereo not drawn)
- GI50 (HL-60): 36.9 µM (inactive)
- GI50 (SF-539): 20.6 µM (inactive)
- GI50 (UACC-62): 25.8 µM (inactive)
- GI50 (UACC-257): 62.2 µM (inactive)
- GI50 (RPMI-8226): 51.6 µM (inactive)
- GI50 (NCI/ADR-RES): 37.5 µM (inactive)
- GI50 (SN12C): > 100 µM (inactive)
- GI50 (MDA-MB-435): 24.2 µM (inactive)
- GI50 (HOP-62): 26.1 µM (inactive)
- GI50 (DU-145): 69.8 µM (inactive)
- GI50 (SR): 26.4 µM (inactive)
- GI50 (NCI-H460): 31.3 µM (inactive)
- GI50 (SF-295): 24.2 µM (inactive)
- GI50 (TK-10): > 100 µM (inactive)
- GI50 (HCT-15): 57.3 µM
- GI50 (T47D): 10.3 µM (inactive)
- GI50 (NCI-H522): 21.9 µM (inactive)
- GI50 (CCRF-CEM): > 100 µM (inactive)
- GI50 (Malme-3M): 56.6 µM (inactive)
- GI50 (Hs-578T): 24.5 µM (inactive)
- GI50 (M14): 73.5 µM (inactive)
- GI50 (MOLT-4): 23.7 µM (inactive)
- GI50 (MDA-N): > 100 µM (inactive)
- GI50 (HCC 2998): 27.3 µM (inactive)
- GI50 (ACHN): 62.5 µM (inactive)
- GI50 (SK-MEL-5): 23.4 µM (inactive)
- GI50 (BT-549): 17 µM (inactive)
- GI50 (MCF7): 33.7 µM (inactive)
- GI50 (OVCAR-8): 66.4 µM (inactive)
- GI50 (COLO 205): 69.7 µM (inactive)
- GI50 (KM12): 14.7 µM (inactive)
- GI50 (HT-29): > 100 µM (inactive)
- GI50 (SW-620): > 100 µM (inactive)
- GI50 (SK-MEL-28): > 100 µM (inactive)
- GI50 (U-251): 15.9 µM (inactive)
- GI50 (OVCAR-4): 47.9 µM (inactive)
- GI50 (UO-31): 52 µM (inactive)
- GI50 (OVCAR-3): 63.2 µM (inactive)
- GI50 (K562): 39.9 µM (inactive)
- GI50 (MDA-MB-231): 40.9 µM (inactive)
- GI50 (SNB-19): 62.8 µM (inactive)
- GI50 (EKVX): 47.3 µM (inactive)
- GI50 (786-0): 53.8 µM (inactive)
- GI50 (LOX IMVI): 38.8 µM (inactive)
- GI50 (HCT-116): 33.1 µM (inactive)
- GI50 (NCI-H23): 54.5 µM (inactive)
- GI50 (IGROV-1): 21.5 µM (inactive)
- GI50 (NCI-H226): 51.1 µM (inactive)
- GI50 (SK-MEL-2): 33.3 µM (inactive)
- GI50 (SF-268): 26.4 µM (inactive)
- GI50 (A549): 28.6 µM (inactive)
